In general, Ki refers to the dissociation constant of the complex between target and ligand, obtained from inhibition or displacement.

Each structure is given as a SMILES string.

In patent US8063053B2, “1-(arylsulfonyl)-4-(piperazin-1-yl)-1H-benzimidazoles as 5-hydroxytryptamine-6 ligands” (Wyeth LLC, priority 2008, dated 2011) one finds Ki data, which are given here for 39 molecules.

This test deals with T1, serotonin 5-HT6 receptor subtype (Homo sapiens, UniProt P50406).
T1 construct: host or cells: CHO-Dukx-A2 cells, clone 50-7
T1 sequence (P50406 whole entry): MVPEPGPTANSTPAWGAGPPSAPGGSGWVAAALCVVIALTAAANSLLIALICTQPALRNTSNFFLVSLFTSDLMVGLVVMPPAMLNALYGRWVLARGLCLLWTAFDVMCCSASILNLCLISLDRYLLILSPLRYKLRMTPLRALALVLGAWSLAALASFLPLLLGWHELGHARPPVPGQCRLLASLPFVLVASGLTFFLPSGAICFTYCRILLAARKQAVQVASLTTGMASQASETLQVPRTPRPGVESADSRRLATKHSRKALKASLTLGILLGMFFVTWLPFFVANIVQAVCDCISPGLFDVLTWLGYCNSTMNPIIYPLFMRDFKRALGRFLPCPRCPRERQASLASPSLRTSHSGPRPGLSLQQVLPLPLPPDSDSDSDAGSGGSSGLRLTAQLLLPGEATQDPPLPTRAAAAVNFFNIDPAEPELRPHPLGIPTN
Briefly: 5-HT6 binding affinity ([3H]-LSD SPA binding). The conditions noted are these: read-out: 5-HT6 binding Ki.
With `O=S(=O)(c1cccc(F)c1F)n1cnc2c(N3CCNCC3)cccc21` [Example 83, 1-[(2,3-difluorophenyl)sulfonyl]-4-piperazin-1-yl-1H-benzimidazole], the Ki was found to be 0.397 nM.

Turning to `O=S(=O)(c1cc(F)ccc1F)n1cnc2c(N3CCNCC3)cccc21` [Example 84, 1-[(2,5-difluorophenyl)sulfonyl]-4-piperazin-1-yl-1H-benzimidazole], the Ki was determined as 0.855 nM.

`O=S(=O)(c1c(Cl)cccc1Cl)n1cnc2c(N3CCNCC3)cccc21` [Example 86, 1-[(2,6-dichlorophenyl)sulfonyl]-4-piperazin-1-yl-1H-benzimidazole]: the Ki amounted to 1.33 nM.

In the case of `Cc1c(F)cccc1S(=O)(=O)n1cnc2c(N3CCNCC3)cccc21` [Example 87, 1-[(3-fluoro-2-methylphenyl)sulfonyl]-4-piperazin-1-yl-1H-benzimidazole], the Ki was 0.402 nM.

Turning to `O=S(=O)(c1cc(F)cc(Cl)c1)n1cnc2c(N3CCNCC3)cccc21` [Example 88, 1-[(3-chloro-5-fluorophenyl)sulfonyl]-4-piperazin-1-yl-1H-benzimidazole], the Ki is 0.589 nM.

Consider `CCOc1ccccc1S(=O)(=O)n1c(C)nc2c(N3CCNCC3)cccc21` [Example 89, 1-[(2-ethoxyphenyl)sulfonyl]-2-methyl-4-piperazin-1-yl-1H-benzimidazole], for which the Ki amounted to 0.761 nM.

With `COc1cc(C)c(Cl)cc1S(=O)(=O)n1cnc2c(N3CCNCC3)cccc21` [Example 90, 1-[(5-chloro-2-methoxy-4-methylphenyl)sulfonyl]-4-piperazin-1-yl-1H-benzimidazole], the Ki came out at 12.9 nM.

As to `Cc1nc2c(N3CCNC(C)C3)cccc2n1S(=O)(=O)c1ccccc1` (stereo not drawn) [Example 91, 2-methyl-4-(3-methylpiperazin-1-yl)-1-(phenylsulfonyl)-1H-benzimidazole], the inhibition constant (Ki) worked out at 2.44 nM.

Consider `Cc1nc2c(N3CCNC(C)C3)cccc2n1S(=O)(=O)c1cccc2ccccc12` (stereo not drawn) [Example 92, 2-methyl-4-(3-methylpiperazin-1-yl)-1-(naphthalen-1-ylsulfonyl)-1H-benzimidazole], for which the Ki came to 0.623 nM.

As to `Cc1nc2c(N3CCNC(C)C3)cccc2n1S(=O)(=O)c1ccccc1Cl` (stereo not drawn) [Example 93, 1-[(2-chlorophenyl)sulfonyl]-2-methyl-4-(3-methylpiperazin-1-yl)-1H-benzimidazole], the Ki worked out at 0.488 nM.

Turning to `Cc1nc2c(N3CCNC(C)C3)cccc2n1S(=O)(=O)c1cccc(F)c1` (stereo not drawn) [Example 94, 1-[(3-fluorophenyl)sulfonyl]-2-methyl-4-(3-methylpiperazin-1-yl)-1H-benzimidazole], the Ki stood at 1.07 nM.

Turning to `Cc1c(Cl)cccc1S(=O)(=O)n1c(C)nc2c(N3CCNC(C)C3)cccc21` (stereo not drawn) [Example 95, 1-[(3-chloro-2-methylphenyl)sulfonyl]-2-methyl-4-(3-methylpiperazin-1-yl)-1H-benzimidazole], the Ki was 0.394 nM.

On to `Cc1nc2c(N3C[C@@H](C)N[C@@H](C)C3)cccc2n1S(=O)(=O)c1ccccc1` [Example 96, 4-[(3R,5S)-3,5-dimethylpiperazin-1-yl]-2-methyl-1-(phenylsulfonyl)-1H-benzimidazole], for which the Ki is 27.2 nM.

Take `Cc1nc2c(N3C[C@@H](C)N[C@@H](C)C3)cccc2n1S(=O)(=O)c1cccc2ccccc12` [Example 97, 4-[(3R,5S)-3,5-dimethylpiperazin-1-yl]-2-methyl-1-(naphthalen-1-ylsulfonyl)-1H-benzimidazole]: the Ki is 3.8 nM.

For `Cc1nc2c(N3C[C@@H](C)N[C@@H](C)C3)cccc2n1S(=O)(=O)c1ccccc1Cl` [Example 98, 1-[(2-chlorophenyl)sulfonyl]-4-[(3R,5S)-3,5-dimethylpiperazin-1-yl]-2-methyl-1H-benzimidazole], the Ki came out at 3.5 nM.

For `Cc1nc2c(N3C[C@@H](C)N[C@@H](C)C3)cccc2n1S(=O)(=O)c1cccc(F)c1` [Example 99, 4-[(3R,5S)-3,5-dimethylpiperazin-1-yl]-1-[(3-fluorophenyl)sulfonyl]-2-methyl-1H-benzimidazole], the Ki stood at 12.9 nM.

In the case of `Cc1c(Cl)cccc1S(=O)(=O)n1c(C)nc2c(N3C[C@@H](C)N[C@@H](C)C3)cccc21` [Example 100, 1-[(3-chloro-2-methylphenyl)sulfonyl]-4-[(3R,5S)-3,5-dimethylpiperazin-1-yl]-2-methyl-1H-benzimidazole], the Ki was 2.28 nM.

Take `O=S(=O)(c1cccc2ccccc12)n1cnc2c(N3CCNCC3)cc(F)cc21` [Example 101, 6-fluoro-1-(naphthalen-1-ylsulfonyl)-4-piperazin-1-yl-1H-benzimidazole]: the Ki was determined as 1.33 nM.

Regarding `O=S(=O)(c1ccccc1Cl)n1cnc2c(N3CCNCC3)cc(F)cc21` [Example 102, 1-[(2-chlorophenyl)sulfonyl]-6-fluoro-4-piperazin-1-yl-1H-benzimidazole], the Ki came to 0.698 nM.

`O=S(=O)(c1ccccc1)n1cnc2c(N3CCNCC3)cc(F)cc21` [Example 103, 6-fluoro-1-(phenylsulfonyl)-4-piperazin-1-yl-1H-benzimidazole]: the inhibition constant Ki is 0.738 nM.

On to `O=S(=O)(c1ccccc1)n1cnc2c(N3C[C@@H]4C[C@H]3CN4)cccc21` [Example 104, 4-[(1S,4S)-2,5-diazabicyclo[2.2.1]hept-2-yl]-1-(phenylsulfonyl)-1H-benzimidazole], for which the inhibitory constant (Ki) was determined as 44.7 nM.

On to `O=S(=O)(c1cccc2ccccc12)n1cnc2c(N3C[C@@H]4C[C@H]3CN4)cccc21` [Example 105, 4-[(1S,4S)-2,5-diazabicyclo[2.2.1]hept-2-yl]-1-(naphthalen-1-ylsulfonyl)-1H-benzimidazole], for which the Ki is 7.55 nM.

As for `O=S(=O)(c1ccccc1Cl)n1cnc2c(N3C[C@@H]4C[C@H]3CN4)cccc21` [Example 106, 1-[(2-chlorophenyl)sulfonyl]-4-[(1S,4S)-2,5-diazabicyclo[2.2.1]hept-2-yl]-1H-benzimidazole], the Ki worked out at 5.3 nM.

As for `O=S(=O)(c1cccc(F)c1)n1cnc2c(N3C[C@@H]4C[C@H]3CN4)cccc21` [Example 107, 4-[(1S,4S)-2,5-diazabicyclo[2.2.1]hept-2-yl]-1-[(3-fluorophenyl)sulfonyl]-1H-benzimidazole], the Ki was determined as 22.1 nM.

As to `Cc1c(Cl)cccc1S(=O)(=O)n1cnc2c(N3C[C@@H]4C[C@H]3CN4)cccc21` [Example 108, 1-[(3-chloro-2-methylphenyl)sulfonyl]-4-[(1S,4S)-2,5-diazabicyclo[2.2.1]hept-2-yl]-1H-benzimidazole], the Ki is 2.86 nM.

Consider `Cc1nc2c(N3C[C@@H]4C[C@H]3CN4)cccc2n1S(=O)(=O)c1ccccc1` [Example 109, 4-[(1S,4S)-2,5-diazabicyclo[2.2.1]hept-2-yl]-2-methyl-1-(phenylsulfonyl)-1H-benzimidazole], for which the Ki was 30.5 nM.

`Cc1nc2c(N3C[C@@H]4C[C@H]3CN4)cccc2n1S(=O)(=O)c1cccc2ccccc12` [Example 110, 4-[(1S,4S)-2,5-diazabicyclo[2.2.1]hept-2-yl]-2-methyl-1-(naphthalen-1-ylsulfonyl)-1H-benzimidazole]: the Ki was determined as 9.92 nM.

Regarding `Cc1nc2c(N3C[C@@H]4C[C@H]3CN4)cccc2n1S(=O)(=O)c1ccccc1Cl` [Example 111, 1-[(2-chlorophenyl)sulfonyl]-4-[(1S,4S)-2,5-diazabicyclo[2.2.1]hept-2-yl]-2-methyl-1H-benzimidazole], the Ki was found to be 21 nM.

For `Cc1nc2c(N3C[C@@H]4C[C@H]3CN4)cccc2n1S(=O)(=O)c1cccc(F)c1` [Example 112, 4-[(1S,4S)-2,5-diazabicyclo[2.2.1]hept-2-yl]-1-[(3-fluorophenyl)sulfonyl]-2-methyl-1H-benzimidazole], the Ki was found to be 39.9 nM.

As to `Cc1c(Cl)cccc1S(=O)(=O)n1c(C)nc2c(N3C[C@@H]4C[C@H]3CN4)cccc21` [Example 113, 1-[(3-chloro-2-methylphenyl)sulfonyl]-4-[(1S,4S)-2,5-diazabicyclo[2.2.1]hept-2-yl]-2-methyl-1H-benzimidazole], the inhibition constant Ki stood at 14.1 nM.

For the molecule `CCC1CN(c2cccc3c2ncn3S(=O)(=O)c2cccc3ccccc23)CCN1` (stereo not drawn) [Example 118, 4-(3-ethylpiperazin-1-yl)-1-(1-naphthylsulfonyl)-1H-benzimidazole], the Ki was 1.38 nM.

For `CCC1CN(c2cccc3c2ncn3S(=O)(=O)c2ccccc2)CCN1` (stereo not drawn) [Example 119, 4-(3-ethylpiperazin-1-yl)-1-(phenylsulfonyl)-1H-benzimidazole], the inhibition constant Ki came out at 0.484 nM.

For the molecule `CC(C)C1CN(c2cccc3c2ncn3S(=O)(=O)c2ccccc2)CCN1` (stereo not drawn) [Example 120, 4-(3-isopropylpiperazin-1-yl)-1-(phenylsulfonyl)-1H-benzimidazole], the Ki came to 6.11 nM.

On to `CC(C)C1CN(c2cccc3c2ncn3S(=O)(=O)c2cccc3ccccc23)CCN1` (stereo not drawn) [Example 121, 4-(3-isopropylpiperazin-1-yl)-1-(1-naphthylsulfonyl)-1H-benzimidazole], for which the Ki amounted to 0.952 nM.

Consider `CC(C)C1CN(c2cccc3c2ncn3S(=O)(=O)c2ccccc2Cl)CCN1` (stereo not drawn) [Example 122, 1-[(2-chlorophenyl)sulfonyl]-4-(3-isopropylpiperazin-1-yl)-1H-benzimidazole], for which the Ki was 1.08 nM.

Turning to `CC(C)CC1CN(c2cccc3c2ncn3S(=O)(=O)c2ccccc2)CCN1` (stereo not drawn) [Example 123, 4-(3-isobutylpiperazin-1-yl)-1-(phenylsulfonyl)-1H-benzimidazole], the inhibitory constant (Ki) amounted to 34.3 nM.

With `CC(C)CC1CN(c2cccc3c2ncn3S(=O)(=O)c2cccc3ccccc23)CCN1` (stereo not drawn) [Example 124, 4-(3-isobutylpiperazin-1-yl)-1-(1-naphthylsulfonyl)-1H-benzimidazole], the Ki is 8.32 nM.

As for `CC(C)CC1CN(c2cccc3c2ncn3S(=O)(=O)c2ccccc2Cl)CCN1` (stereo not drawn) [Example 125, 1-[(2-chlorophenyl)sulfonyl]-4-(3-isobutylpiperazin-1-yl)-1H-benzimidazole], the Ki was found to be 4.98 nM.

As to `Cc1nc2c(N3CCN[C@@H](C)C3)cccc2n1S(=O)(=O)c1cccc2c(Cl)cccc12` [Example 126, 1-[(5-chloro-1-naphthyl)sulfonyl]-2-methyl-4-[(3S)-3-methylpiperazin-1-yl]-1H-benzimidazole], the Ki turned out to be 1.05 nM.
